Data on 2 compounds can be found in US20250375427A1 (Biohaven Therapeutics Ltd., priority 2022, published 2025).

One series relates to 64SP stem like cells. As to conditions: combined with radiation; cited from earlier work.
The subject of series [1] is O^6-methylguanine-DNA-methyltransferase (MGMT) expression. As to conditions: combined with temozolomide (TMZ); cited from earlier work.
A short description of series [2]: Clinical adverse events observed with troriluzole. The conditions noted are these: human, in vivo. An excerpt:
In general, mild liver enzymes elevations attributed to troriluzole occur due to enzyme induction and are likely to resolve spontaneously within 12 weeks without any changes in the dose of troriluzole. However, the investigator should evaluate the subject, as appropriate.

A further series has as its system glioma. The conditions noted are these: cited from earlier work.

In the case of `Nc1nc2ccc(OC(F)(F)F)cc2s1` [Riluzole, riluzole], the sensitivity to radiation entry in the series with 64SP stem like cells is listed as “enhances sensitivity to radiation”. The “effects of TMZ” value in series [1] is “enhances the effects of TMZ via suppression of O^6-methylguanine-DNA-methyltransferase (MGMT) expression”.

Turning to `CN(CC(=O)Nc1nc2ccc(OC(F)(F)F)cc2s1)C(=O)CNC(=O)CN` [Troriluzole, troriluzole], the “most commonly observed adverse events” value in series [2] is reported as “Mild increases in liver enzymes”. In addition, the “concentration of CD4+ T cells in TME” value with glioma (IF data, after troriluzole treatment) is recorded as “increased concentration of CD4+ T cells in TME”. Also, in the series on glioma (troriluzole treatment), the “proliferation of tumor-infiltrating T cells” value is reported as “promoted proliferation of tumor-infiltrating T cells” and the survival entry is on record as “induced a survival benefit”. In the series on glioma (with anti-PD-1 immunotherapy, glioma tumor microenvironment (TME)), the “survival and T regulatory cells in combination with anti-PD-1” value is “synergized with anti-PD-1 immunotherapy to further improve survival and reduce T regulatory cells”.
